Consider three compounds from US20210255193A1, “LYSINE REACTIVE PROBES AND USES THEREOF” (The Scripps Research Institute, priority 2017, published 2021).

Assay [1] has as its target T1, PNPO (Homo sapiens, UniProt Q9NVS9, K100R).
T1 construct: Flag; expressed in transfected cells; host or cells: HEK 293T, transient transfection, soluble lysate
In words: PNPO functional assay. In kind it is biochemical. The settings on record: K100R mutant. As for the experimental part: PNPO functional assay. 80 μl of soluble proteome (total protein concentration: 1 mg ml^−1) from HEK 293T cells expressing PNPO (WT or K100R mutant) or mock transfected cells (empty vector; negative control) were added into a clear bottom 384 well plate. For compound treatments, 1 μl of the inhibitor (80× solution in DMSO) or 1 μl of DMSO (positive control) were added and the reactions were incubated for 1 h at room temperature. 10 μl of 0.1 M Tris in PBS were added and the reaction was started by addition of 10 μl 5 mM pyridoxine phosphate (PNP) in water (PNP was prepared as described in Argoudelis, C. J., “Preparation of crystalline pyridoxine 5′-phosphate and some of its properties,” J. Agr. Food Chem. 34, 995-998 (1986)). The absorbance of the Schiff Base between pyridoxal phosphate and Tris was measured at 388 nm every minute for 30 min.
(§1) Calculation of relative activity or percent inhibition. For PNPO, PFKP, NUDT2 and G6PD, the slope of the linear regression of the linear portion of the absorbance or fluorescence over time was used as measure their activity. Apparent activity was calculated relative to the WT. Percent inhibition was calculated relative to the positive and negative control and used to calculate IC50 values by nonlinear regression analysis from a dose-response curve generated using GraphPad Prism 7.

Assay [2] has as its target T2, NUDT2 (Homo sapiens, UniProt P50583).
T2 construct: expressed in transfected cells; host or cells: HEK 293T, transient transfection, soluble lysate; synthesized gene (IDT)
In words: NUDT2 functional assay. The note with it: substrate assay. It is filed as biochemical. As for the experimental part:
NUDT2 functional assay. NUDT2 activity was measured with a published assay using a fluorogenic substrate. For inhibitor experiments, 50 μl of soluble proteome (initial total protein concentration: 1 mg ml^−1) from HEK 293T cells expressing NUDT2 (WT or K89R mutant) or mock transfected cells (empty vector; negative control) were incubated with 1 μl 50× of the compound in DMSO or DMSO for the positive or negative control (lysate transfected with empty vector) for 1 h at room temperature. Lysates were diluted 4000× with dilution buffer and 64 μl were added into a black 384 well plate. 16 μl of fluorogenic substrate (5 μM) were added to start the reaction. The fluorescence intensity with excitation at 530 nm and emission at 563 nm was measured every minute for 30 min.
as §1

Assay [3] addresses T3, lysine residues in human cell proteomes (MDA-MB-231, Ramos, Jurkat) (Homo sapiens, UniProt Q9NVS9).
T3 construct: endogenous in cells; host or cells: MDA-MB-231, Ramos, Jurkat lysates
In words: isoTOP-ABPP lysine reactivity profiling (0.1 vs 1 mM probe 1). In kind it is binding. The settings on record: PNPO K100; 1 mM vs 0.1 mM probe 1. As to the method:
(§2) STP-alkyne labeling and click chemistry. For concentration-dependent reactivity measurements by isoTOP-ABPP, 0.5 ml proteome aliquots were treated at ambient temperature with 1 mM STP-alkyne 1 (5 μl of 100 mM stock in DMSO) and 0.1 mM STP alkyne 1 (5 μl of 10 mM stock in DMSO), respectively. For competitive isoTOP-ABPP, after in vitro fragment treatment (detailed above), the samples were labeled for 1 h at ambient temperature with 0.1 mM STP-alkyne 1 (5 μl of 10 mM stock in DMSO). Samples were conjugated by copper-mediated azide-alkyne cycloaddition (CuAAC) to either the light (1 mM STP-alkyne or fragment treated) or heavy (0.1 mM STP-alkyne or DMSO treated) TEV tags (10 μl of 5 mM stocks in DMSO, final concentration=100 μM) using tris(2-carboxyethyl)phosphine hydrochloride
(§3) R value calculation and processing. The ratios of light and heavy MS1 peaks for each unique peptide were quantified with a CIMAGE software using default parameters (3 MS1 acquisitions per peak and signal to noise threshold set to 2.5). For reactivity measurements by isoTOP-ABPP, the R value was calculated from the ratio of MS1 peak areas, comparing the 1 mM STP alkyne sample (light TEV tag) with the 0.1 mM STP alkyne sample (heavy TEV tag). For competitive isoTOP-ABPP, the R value was calculated from the ratio of MS1 peak areas, comparing the DMSO treated sample (heavy TEV tag) with the compound treated sample (light TEV tag). […] Ratios for unique peptide entries are calculated for each experiment; overlapping peptides with the same modified lysine (for example, different charge states, MudPIT chromatographic steps or tryptic termini) are grouped together and the median ratio is reported as the final ratio (R). The peptide ratios reported by CIMAGE were further filtered to ensure the removal or correction of low-quality ratios in each individual data set. […]
(§4) Cross-data processing for reactivity profiling. For reactivity profiling, the median of biological replicates of the same condition and cell-line was calculated. For peptides containing several possible modified lysines, the lysine with the highest number of quantification events was used for analysis and the remaining, redundant peptides were reported as alternative modification sites. Peptides were required to be detected in at least one 1 mM vs 0.1 mM and one 0.1 mM vs 0.1 mM data set with the latter R value being smaller than 2.5. […] If the lysine was not detected in any soluble fraction, the R value from the membrane fraction was taken. Additionally, all membrane-only lysines with reactivity values were further required to have been detected in at least one 0.1 mM vs 0.1 mM membrane profiling experiment. […]
(§5) Here, the intrinsic reactivity of lysine residues was assessed in human cell proteomes. In brief, proteomes from three human cancer cell lines were treated (MDA-MB-231, Ramos, and Jurkat cells) with low vs high concentrations of probe 1 (0.1 vs 1 mM, n=4 per group) for 1 h and then analyzed the samples by isoTOP-ABPP, wherein high, medium, and low reactivity lysines were distinguished by their respective isotopic ratio values (R10:1<2, 2<R10:1<5, R10:1>5, respectively). […]

Assay [4] relates to lysine residues in human cell proteomes (MDA-MB-231, Ramos, Jurkat). Described as above. In kind it is binding. As to the method: as §2, §3, §4, §5

Where only a bound is given, the exact number is not on record here.

T2 sequence (P50583 whole entry): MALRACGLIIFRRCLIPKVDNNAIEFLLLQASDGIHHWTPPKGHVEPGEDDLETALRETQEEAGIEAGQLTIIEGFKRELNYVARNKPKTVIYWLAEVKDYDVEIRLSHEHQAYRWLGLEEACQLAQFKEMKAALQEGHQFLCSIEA
T1 sequence (Q9NVS9 whole entry K100R): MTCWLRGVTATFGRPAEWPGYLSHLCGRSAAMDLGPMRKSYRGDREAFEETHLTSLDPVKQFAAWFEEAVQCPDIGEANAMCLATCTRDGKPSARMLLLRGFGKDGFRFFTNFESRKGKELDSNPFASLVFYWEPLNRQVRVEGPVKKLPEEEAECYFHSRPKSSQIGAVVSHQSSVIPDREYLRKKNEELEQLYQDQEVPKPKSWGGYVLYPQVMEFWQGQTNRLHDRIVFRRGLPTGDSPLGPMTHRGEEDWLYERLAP
T3 sequence (Q9NVS9 whole entry): as the sequence (Q9NVS9 whole entry K100R) above, with R100K counted along it

Turning to `O=C(CCc1cn(-c2ccccc2)nc1-c1ccccc1)Oc1c(F)c(F)c(F)c(F)c1F` [fragment 19, Pentafluorophenyl 3-(1,3-diphenyl-1H-pyrazol-4-yl)propanoate], the “inhibitory effect on K100R mutant of PNPO” value in assay [1] is “not observed”.
In the case of `COC(=O)NC(=NC(=O)OCC1c2ccccc2-c2ccccc21)n1cccn1` [fragment 49, N-Methoxycarbonyl-N′-9-fluorenylmethoxycarbonyl-pyrazole-1-carboxamidine], the “IC50, inhibition of NUDT2 activity” value in assay [2] is “equivalent IC50 value”.
Turning to `C#CCCC(=O)Oc1c(F)c(F)c(S(=O)(=O)[O-])c(F)c1F.[Na+]` [probe 1, reference compound], in assay [3], the “R10:1 lysine reactivity ratio” value is given as 0.7. For the same compound, the “selectivity for lysine modification over other amino acids” value in assay [4] (1 mM probe) is “excellent selectivity for lysine modification over other amino acids”. In assay [4] (0.1 vs 1 mM probe 1, 1 h), the “hyper-reactive lysines (R10:1 <2), total residues” value was 310; the “quantified lysines with R10:1 values = 10 (low intrinsic reactivity)” value is reported as more than 50%; the “quantified lysines with hyper-reactivity with probe 1 (R10:1 values <2)” value was less than 10%.
